Experimental data published in DBAASP.
≈ marks a conversion by molar mass, not a printed value. Where “and” joins values, the source holds several entries; their conditions need not be identical. Equal values may be shown once.

Experiments:
Test in all cases: ≥ marks a high value that may be exact or a test limit, other limits are often not marked, values filed in µg/mL are converted to µM
[1] = tested on: Candida albicans NCTC 3179
[2] = tested on: Escherichia coli ATCC 25922
[3] = tested on: Staphylococcus aureus ATCC 25923
[4] = tested on: Pseudomonas aeruginosa 1570
[5] = tested on: Pseudomonas aeruginosa 5167
[6] = tested on: Pseudomonas aeruginosa 8600
[7] = tested on: Pseudomonas aeruginosa ATCC 27853
Aeromonas hydrophila = tested on: Aeromonas hydrophila
Escherichia coli = tested on: Escherichia coli
Staphylococcus aureus = tested on: Staphylococcus aureus
Streptococcus pyogenes = tested on: Streptococcus pyogenes
Vibrio alginolyticus = tested on: Vibrio alginolyticus
Vibrio fluvialis = tested on: Vibrio fluvialis
Vibrio parahaemolyticus = tested on: Vibrio parahaemolyticus
[8] = tested on: Bacillus cereus ATCC 14579
[9] = tested on: Bacillus subtilis ATCC 23857
[10] = tested on: Candida albicans ATCC 90028
[11] = tested on: Cryptococcus neoformans ATCC 28957
[12] = tested on: Fusarium oxysporum f.sp. vasinfectum
Fusarium oxysporum = tested on: Fusarium oxysporum
Fusarium solani = tested on: Fusarium solani
[13] = tested on: Pectobacterium carotovorum
[14] = tested on: Pseudomonas syringae pv. tabaci
Ramulariopsis gossypii = tested on: Ramulariopsis gossypii
Rhizoctonia solani = tested on: Rhizoctonia solani
Trichoderma asperellum = tested on: Trichoderma asperellum
[15] = tested on: Xanthomonas campestris pv. citri
[16] = tested on: Acinetobacter baumannii KCTC 2508
[17] = tested on: Klebsiella pneumoniae KCTC 2208
[18] = tested on: Klebsiella pneumoniae MTCC 443
[19] = tested on: Pseudomonas aeruginosa MTCC 2488
[20] = tested on: Staphylococcus aureus MTCC 96
[21] = tested on: Candida albicans KCTC 7270
[22] = tested on: Escherichia coli CCARM 1229
[23] = tested on: Escherichia coli CCARM 1238
[24] = tested on: Pseudomonas aeruginosa 4007
[25] = tested on: Pseudomonas aeruginosa 4891
[26] = tested on: Staphylococcus aureus CCARM 3090
[27] = tested on: Staphylococcus aureus CCARM 3518
[28] = tested on: Trichosporon beigelii KCTC 7707
[29] = tested on: Streptococcus gordonii ATCC 10558
[30] = tested on: Streptococcus mutans GS-5
[31] = tested on: Streptococcus mutans UA159
[32] = tested on: Streptococcus sanguinis ATCC 49295

CC[C@H](C)[C@H](NC(=O)[C@@H]1CCCN1C(=O)CNC(=O)[C@H](CO)NC(=O)[C@H](CO)NC(=O)[C@@H](NC(=O)[C@H](C)NC(=O)[C@H](CCC(N)=O)NC(=O)[C@H](Cc1ccccc1)NC(=O)[C@H](CCCN=C(N)N)NC(=O)[C@H](CC(C)C)NC(=O)[C@H](CC(C)C)NC(=O)[C@H](CC(C)C)NC(=O)[C@H](CCC(=O)O)NC(=O)[C@H](CCC(=O)O)NC(=O)[C@H](CO)NC(=O)[C@H](C)N)[C@@H](C)O)C(=O)N[C@@H](CC(C)C)C(=O)N[C@@H](CCCN=C(N)N)C(=O)N[C@@H](CCC(=O)O)C(=O)N[C@@H](CCC(=O)O)C(=O)N[C@@H](Cc1ccccc1)C(=O)N[C@@H](CCC(=O)O)C(=O)O [ASEELLLRFQATSSGPILREEFE]
MIC [1]: ≥ 95.3 µM | MIC [2]: > 95.3 µM | MIC [3]: > 95.3 µM

CC(C)C[C@H](NC(=O)[C@H](CC(C)C)NC(=O)[C@H](CCCCN)NC(=O)[C@H](CCCCN)NC(=O)[C@H](CC(C)C)NC(=O)[C@H](CC(C)C)NC(=O)[C@H](CCCCN)NC(=O)[C@H](C)NC(=O)[C@@H](N)Cc1ccccc1)C(N)=O [FAKLLKKLL]
MIC [4]: 21.1 µM (≈ 22.6 µg/mL) | MIC [5]: ≥ 59.6 µM | MIC [6]: 5.27 µM (≈ 5.65 µg/mL) | MIC [7]: 7.45 µM and 14.9 µM

CC(C)C[C@H](NC(=O)[C@H](CCCCN)NC(=O)[C@H](CCC(N)=O)NC(=O)[C@@H](NC(=O)[C@H](C)NC(=O)[C@H](CCC(=O)O)NC(=O)CNC(=O)CN)C(C)C)C(=O)N[C@H](C(=O)N[C@@H](CCCN=C(N)N)C(=O)N[C@@H](CCC(=O)O)C(=O)N[C@H](C(=O)N[C@@H](CCCCN)C(=O)N[C@@H](CC(=O)O)C(=O)NCC(=O)O)C(C)C)C(C)C [GGEAVQKLVREVKDG]
MIC (Aeromonas hydrophila): ≥ 158 µM | MIC (Escherichia coli): > 158 µM | MIC (Staphylococcus aureus): > 158 µM | MIC (Streptococcus pyogenes): ≥ 158 µM | MIC (Vibrio alginolyticus): ≥ 78.9 µM | MIC (Vibrio fluvialis): ≥ 78.9 µM | MIC (Vibrio parahaemolyticus): ≥ 158 µM

CSCC[C@H](NC(=O)[C@H](Cc1ccccc1)NC(=O)CNC(=O)[C@H](Cc1cnc[nH]1)NC(=O)[C@H](CC(C)C)NC(=O)[C@H](CO)NC(=O)CN)C(=O)N[C@@H](Cc1ccc(O)cc1)C(=O)N[C@@H](CCCCN)C(=O)N[C@@H](Cc1ccc(O)cc1)C(=O)N[C@@H](CC(C)C)C(=O)N[C@@H](CCCCN)C(=O)N[C@H](C(=O)N[C@@H](CC(C)C)C(=O)N[C@H](C(=O)N[C@@H](CC(C)C)C(=O)N[C@@H](CCCN=C(N)N)C(=O)N[C@@H](CC(C)C)C(=O)N[C@@H](Cc1ccc(O)cc1)C(N)=O)C(C)C)[C@@H](C)O [GSLHGFMYKYLKTLVLRLY]
MIC [8]: ≥ 64 µM | MIC [9]: 8 µM (≈ 18.4 µg/mL) | MIC [10]: 6.67 µM (≈ 15.4 µg/mL) | MIC [11]: 4 µM (≈ 9.21 µg/mL) | MIC [2]: 13.3 µM (≈ 30.7 µg/mL) | MIC [12]: 10.7 µM (≈ 24.6 µg/mL) | MIC (Fusarium oxysporum): 16 µM (≈ 36.8 µg/mL) | MIC (Fusarium solani): 4 µM (≈ 9.21 µg/mL) | MIC [13]: 16 µM (≈ 36.8 µg/mL) | MIC [7]: 16 µM (≈ 36.8 µg/mL) | MIC [14]: ≥ 32 µM | MIC (Ramulariopsis gossypii): 2 µM (≈ 4.6 µg/mL) | MIC (Rhizoctonia solani): ≥ 32 µM | MIC [3]: 16 µM (≈ 36.8 µg/mL) | MIC (Trichoderma asperellum): 16 µM (≈ 36.8 µg/mL) | MIC [15]: 16 µM (≈ 36.8 µg/mL)

CC[C@H](C)[C@H](N)C(=O)N[C@@H](C)C(=O)N[C@@H](CCCN=C(N)N)C(=O)N[C@@H](CCCN=C(N)N)C(=O)N[C@@H](C)C(=O)N[C@@H](CC(C)C)C(=O)N[C@@H](CCCCN)C(=O)N[C@@H](CCCCN)C(=O)N[C@@H](C)C(=O)N[C@@H](CCCCN)C(=O)N[C@@H](CCCN=C(N)N)C(=O)N[C@@H](C)C(=O)N[C@@H](CCCN=C(N)N)C(=O)N[C@@H](Cc1cnc[nH]1)C(=O)N[C@H](C(=O)N[C@H](C(=O)N1CCC[C@H]1C(=O)N[C@@H](CCC(N)=O)C(=O)N[C@@H](CS)C(=O)N[C@@H](CCCCN)C(=O)N[C@@H](CCCCN)C(=O)N[C@@H](Cc1ccccc1)C(=O)NCC(=O)N[C@@H](CCCN=C(N)N)C(=O)N[C@@H](CCCN=C(N)N)C(N)=O)[C@@H](C)CC)[C@@H](C)O [IARRALKKAKRARHTIPQCKKFGRR]
MIC [16]: 4 µM (≈ 12 µg/mL) | MIC [17]: 8 µM (≈ 23.9 µg/mL) | MIC [7]: 1 µM (≈ 2.99 µg/mL)

CC(C)C[C@H](NC(=O)[C@H](CCCCN)NC(=O)[C@H](CCCCN)NC(=O)[C@H](CC(C)C)NC(=O)[C@H](Cc1c[nH]c2ccccc12)NC(=O)[C@H](CCCCN)NC(=O)[C@@H](N)CC(C)C)C(N)=O [LKWLKKL]
MIC [18]: ≥ 50 µM | MIC [19]: 30 µM (≈ 27.8 µg/mL) | MIC [20]: ≥ 80 µM

CC[C@H](C)[C@H](NC(=O)[C@H](CCCCN)NC(=O)[C@H](CCCCN)NC(=O)[C@@H](NC(=O)[C@H](C)NC(=O)[C@H](CCC(=O)O)NC(=O)[C@H](Cc1cnc[nH]1)NC(=O)[C@@H](NC(=O)[C@H](CCCCN)NC(=O)[C@H](CCC(N)=O)NC(=O)[C@H](Cc1ccccc1)NC(=O)[C@@H](NC(=O)[C@H](CCCCN)NC(=O)[C@H](CCCCN)NC(=O)[C@H](CC(C)C)NC(=O)[C@H](C)NC(=O)[C@H](CC(N)=O)NC(=O)[C@@H](N)CC(C)C)C(C)C)[C@@H](C)CC)[C@@H](C)CC)C(N)=O [LNALKKVFQKIHEAIKKI]
MIC [21]: 16 µM (≈ 33.9 µg/mL) | MIC [22]: 2 µM (≈ 4.24 µg/mL) | MIC [23]: 2 µM (≈ 4.24 µg/mL) | MIC [24]: 4 µM (≈ 8.48 µg/mL) | MIC [25]: 4 µM (≈ 8.48 µg/mL) | MIC [26]: 4 µM (≈ 8.48 µg/mL) | MIC [27]: 4 µM (≈ 8.48 µg/mL) | MIC [28]: 16 µM (≈ 33.9 µg/mL)

CC(C)C[C@H](NC(=O)[C@H](CCCN=C(N)N)NC(=O)[C@H](Cc1ccccc1)NC(=O)[C@H](Cc1ccccc1)NC(=O)[C@@H](NC(=O)[C@H](CO)NC(=O)[C@@H](N)CC(C)C)[C@@H](C)O)C(=O)N[C@@H](Cc1ccccc1)C(=O)N[C@@H](CC(N)=O)C(=O)O [LSTFFRLFN]
MIC [29]: ≥ 224 µM | MIC [30]: ≥ 224 µM | MIC [31]: ≥ 224 µM | MIC [32]: ≥ 224 µM
